The target in data set [1] is Peroxisome proliferator-activated receptor gamma/Nuclear receptor coactivator 1 (Homo sapiens, UniProt P37231). The data set is described as follows: TR-FRET dose response biochemical High Throughput Screening assay for agonists of the steroid receptor coactivator 1 (SRC-1) recruitment by the peroxisome proliferator-activated receptor gamma (PPAR gamma): non-selective agonists. [Related pubchem assays (depositor defined):AID1300, AID1808, AID504735, AID631]. The format is protein assay. (In general: In TR-FRET formats the signal depends on donor and acceptor labels being close together.)

In data set [2] the target is Peroxisome proliferator-activated receptor gamma/Nuclear receptor coactivator 3 (Homo sapiens, UniProt P37231). The data set is described as follows: TR-FRET dose response biochemical High Throughput Screening assay for agonists of the steroid receptor coactivator 3 (SRC-3) recruitment by the peroxisome proliferator-activated receptor gamma (PPAR gamma): non-selective agonists. [Related pubchem assays: 1301 (Confirmation screen.), 1048 (Primary screen.)]. In kind it is functional.

Data set [3] addresses Protein-tyrosine kinase 2-beta (Homo sapiens, UniProt Q14289).
The target of data set [4] is T1, Peroxisome proliferator-activated receptor gamma/Nuclear receptor corepressor 2 (Homo sapiens, UniProt P37231+Q9Y618). Kind of data set: Counterscreen for NR2E3 inverse agonists: TR-FRET-based biochemical high throughput dose response assay to identify inverse agonists of the interaction between peroxisome proliferator-activated receptor gamma (PPARg) and nuclear receptor co-repressor 2 (NCOR2). In kind it is functional. On the technique in general: Counterscreens check selectivity or assay interference.

Data set [5] has as its target T2, Photoreceptor-specific nuclear receptor (Homo sapiens, UniProt Q9Y5X4). The data set is described as follows: NR2E3 inverse agonists, dose response, biochemical, TR-FRET (AID 463256). In kind it is functional.
Data set [6] concerns the target Peroxisome proliferator-activated receptor gamma/Nuclear receptor coactivator 2 (Homo sapiens, UniProt P37231). Kind of data set: TR-FRET dose response biochemical High Throughput Screening assay for agonists of the steroid receptor coactivator 2 (SRC-2) recruitment by the peroxisome proliferator-activated receptor gamma (PPAR gamma): non-selective agonists. [Related pubchem assays: 1297, 1032 ]. In kind it is functional.

Data set [7] concerns the target T2, Photoreceptor-specific nuclear receptor. The format is functional.
For another data set, the target named is Large T antigen (Simian virus 40, UniProt P03070). The format is functional, Betapolyomavirus macacae.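 Also: Confirmatory-stage PubChem screen for compounds that inhibit SV40 T antigen.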
Another data set addresses T3, Estrogen receptor (Homo sapiens, UniProt P03372).
T3 sequence (P03372 whole entry): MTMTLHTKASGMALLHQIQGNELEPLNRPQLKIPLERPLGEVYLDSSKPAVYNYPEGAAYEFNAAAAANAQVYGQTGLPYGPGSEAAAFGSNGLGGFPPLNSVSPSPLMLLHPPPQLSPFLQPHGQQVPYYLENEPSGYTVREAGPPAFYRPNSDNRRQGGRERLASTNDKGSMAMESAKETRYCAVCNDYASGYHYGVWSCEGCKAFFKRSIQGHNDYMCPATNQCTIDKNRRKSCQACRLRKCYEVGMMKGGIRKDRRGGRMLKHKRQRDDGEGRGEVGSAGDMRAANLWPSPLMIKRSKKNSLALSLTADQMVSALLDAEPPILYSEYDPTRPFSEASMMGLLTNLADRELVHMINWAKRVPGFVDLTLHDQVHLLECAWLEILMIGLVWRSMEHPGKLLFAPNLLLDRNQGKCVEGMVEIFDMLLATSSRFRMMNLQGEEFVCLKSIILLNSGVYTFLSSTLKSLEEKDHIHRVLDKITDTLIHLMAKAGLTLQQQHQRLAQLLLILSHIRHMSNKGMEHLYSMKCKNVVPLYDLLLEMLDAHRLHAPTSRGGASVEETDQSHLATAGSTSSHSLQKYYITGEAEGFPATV

Data set [8] concerns the target T4, Estrogen receptor beta (Homo sapiens, UniProt Q92731).
The target in data set [9] is T4, Estrogen receptor beta. Kind of data set: ERβ–SRC-3 coactivator interaction inhibitors, confirmation, orthogonal assay, biochemical, ELISA, streptavidin-HRP readout (AID 1060). (An ELISA detects its analyte on a solid surface through an enzyme-linked reagent.)
Data set [10] deals with T1, Peroxisome proliferator-activated receptor gamma/Nuclear receptor corepressor 2. In kind it is functional.
The target of data set [11] is Bifunctional protein GlmU (Mycobacterium tuberculosis, UniProt P9WMN3). The data set is described as follows: Inhibitors of Mycobacterial Glucosamine-1-phosphate acetyl transferase (GlmU). Secondary screen. More on the design: species or system Mycobacterium tuberculosis H37Rv.
For data set [12], the target named is FAD-linked sulfhydryl oxidase ALR (Homo sapiens, UniProt P55789). The data set is described as follows: inhibitors of human ALR sulfhydryl oxidase, dose response, biochemical, H2O2 detection, luminescence, cherry-pick (AID 493248).
For the next data set, the target named is T5, Cysteine protease ATG4B (Homo sapiens, UniProt Q9Y4P1).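 Also: Fluorescence-based dose-response confirmation assay measuring inhibition of ATG4B activity.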
T5 sequence (Q9Y4P1 whole entry): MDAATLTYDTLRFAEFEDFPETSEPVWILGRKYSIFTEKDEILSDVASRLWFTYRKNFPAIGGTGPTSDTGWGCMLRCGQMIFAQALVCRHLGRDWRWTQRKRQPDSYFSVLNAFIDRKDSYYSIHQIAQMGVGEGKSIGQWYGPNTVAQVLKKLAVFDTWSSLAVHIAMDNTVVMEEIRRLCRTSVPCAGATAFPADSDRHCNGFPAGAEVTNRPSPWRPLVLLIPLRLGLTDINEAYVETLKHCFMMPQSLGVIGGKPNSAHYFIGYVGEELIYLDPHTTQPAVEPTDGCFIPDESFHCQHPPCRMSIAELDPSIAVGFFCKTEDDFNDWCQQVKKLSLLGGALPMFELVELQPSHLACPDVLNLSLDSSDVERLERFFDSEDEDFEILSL
In kind it is functional.

A further data set deals with Phospholipase A2 (Homo sapiens, UniProt P04054). The format is functional.
Data set [13] can be described thus: Artemis endonuclease inhibitor potency, dose response, biochemical, fluorescence intensity (AID 720701).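 Also: Artemis endonuclease enzyme.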 In kind it is functional.
The target of data set [14] is E3 ubiquitin-protein ligase Mdm2 (Homo sapiens, UniProt Q00987). The data set is described as follows: enhancers of MDM2-luciferase reporter signal, concentration-effect titration, project on inhibitors of MDM2 ubiquitin ligase, cellular assay, luminescent readout, 384-well plate format (AID 1394).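 Also: MDM2 E3 inhibitors raise luminescence so EC50 is for signal enhancement.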 The format is functional.
For another data set, the target named is Ephrin type-A receptor 4 (Mus musculus, UniProt Q03137). Kind of data set: inhibitors of EphA4 binding to KYL peptide, primary screen, biochemical, colorimetric, mouse EphA4 (AID 689). In kind it is functional.
A short description of data set [15]: Luminescence Cell-Based Dose Response to Identify Activators of 5'UTR Stem-Loop Driven Prion Protein mRNA Translation in H4-C Neuroglioblastoma Cells. [Related pubchem assays: 1829 (Project Summary), 1814 (Primary HTS)]. The format is functional.
The nature of data set [16]: Luminescence Cell-Based Dose Confirmation HTS to Identify Activators of 5'UTR Stem-Loop Driven Alpha-Synuclein mRNA Translation in H4 Neuroglioblastoma Cells. [Related pubchem assays: 1829 (Project Summary), 1814 (Primary HTS)]. The format is functional.
The nature of data set [17]: Luminescence Cell-Based Dose Response HTS to Identify Activators of Luciferase Translation or Activity in H4 […] Cells. [Related pubchem assays: 1829 (Project Summary), 1814 (Primary HTS)]. In kind it is functional.
For the next data set, the system named is H4. Kind of data set: Luminescence Cell-Based Dose Response HTS to Identify Activators of 5'UTR Stem-Loop Driven Prion Protein mRNA Translation in H4 Neuroglioblastoma Cells. [Related pubchem assays: 1829 (Project Summary), 1814 (Primary HTS)]. The format is functional. Particulars: Homo sapiens.
The nature of data set [18]: Luminescence Cell-Based Dose Response to Identify Activators of Luciferase Translation or Activity in H4-C Neuroglioblastoma Cells. [Related pubchem assays: 1829 (Project Summary), 1814 (Primary HTS)]. The format is functional.
Data set [19] deals with Heat shock protein HSP 90-alpha (Homo sapiens, UniProt P07900). Kind of data set: Luminescence-based dose response biochemical high throughput screening assay for inhibitors of the Heat Shock Protein 90 (HSP90). [Related pubchem assays: 1831 (Summary AID.), 1846 (Confirmation screen.), 1789 (Primary screen.)].
Data set [20] can be described thus: Luminescence Cell-Based Dose Confirmation to Identify Activators of 5'UTR Stem-Loop Driven Alpha-Synuclein mRNA Translation in H4 Neuroglioblastoma Cells. [Related pubchem assays: 1829 (Project Summary), 1814 (Primary HTS)]. The format is functional.
Data set [21] has as its target Sphingosine 1-phosphate receptor 2 (Homo sapiens, UniProt O95136). Kind of data set: Dose Response Cell Based Assay for Antagonists of the S1P2 Receptor. [Related pubchem assays: 856, 736 ]. The format is functional.
The subject of data set [22] is Streptococcus sp. 'group A'. Kind of data set: growth inhibition of control SK(-) GAS strain, dose response, counter-screen for streptokinase expression inhibitor project, luminescence, kanamycin, BacTiterGlo, confirmation (AID 1900). The format is functional, organism-based.
A further data set addresses T6, Streptokinase A (Streptococcus pyogenes serotype M1, UniProt P10520).
T6 sequence (P10520 whole entry): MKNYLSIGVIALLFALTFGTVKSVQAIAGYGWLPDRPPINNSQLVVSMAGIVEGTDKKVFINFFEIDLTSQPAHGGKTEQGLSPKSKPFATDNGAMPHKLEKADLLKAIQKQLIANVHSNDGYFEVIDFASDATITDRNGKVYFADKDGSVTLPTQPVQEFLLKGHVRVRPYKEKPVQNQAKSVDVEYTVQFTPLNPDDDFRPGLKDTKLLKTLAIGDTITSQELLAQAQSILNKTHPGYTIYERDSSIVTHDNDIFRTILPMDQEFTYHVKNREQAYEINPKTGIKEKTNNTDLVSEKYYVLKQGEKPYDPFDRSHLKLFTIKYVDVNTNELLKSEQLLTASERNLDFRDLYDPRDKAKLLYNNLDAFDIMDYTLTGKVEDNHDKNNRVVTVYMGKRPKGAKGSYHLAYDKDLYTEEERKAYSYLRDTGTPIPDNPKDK
Kind of data set: S. pyogenes streptokinase expression inhibitors, potency, dose response, plasminogen activation absorbance, OD405 (AID 1914).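 Also: secreted streptokinase activity via plasminogen activation per viability signal from cell pellet.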 The format is functional, Streptococcus pyogenes M1 GAS.

Another data set concerns Streptococcus. The data set is described as follows: Group A Streptococcus viability loss, dose response, counter-screen for streptokinase expression inhibitor project, luminescence, BacTiterGlo (AID 1915).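 Also: potency for reduction of bacterial viability or growth.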 The format is functional, organism-based.
Another data set deals with Cytochrome P450 3A4 (Homo sapiens, UniProt P08684).
For data set [23], the target named is Mitogen-activated protein kinase 10 (Homo sapiens, UniProt P53779). Kind of data set: Dose response biochemical screening assay for inhibitors of c-Jun N-Terminal Kinase 3 (JNK3). [Related pubchem assays: 746 ].
The target in another data set is Cytochrome P450 2D6 (Homo sapiens, UniProt P10635).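 Also: CYP2D6 member of a cytochrome P450 panel assay.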
Data set [24] in a line: M. tuberculosis growth inhibition, HTS (AID 449762). In kind it is functional.

Active and inactive are the calls of the source.

Protein-tyrosine kinase 2-beta, sequence (Q14289 whole entry): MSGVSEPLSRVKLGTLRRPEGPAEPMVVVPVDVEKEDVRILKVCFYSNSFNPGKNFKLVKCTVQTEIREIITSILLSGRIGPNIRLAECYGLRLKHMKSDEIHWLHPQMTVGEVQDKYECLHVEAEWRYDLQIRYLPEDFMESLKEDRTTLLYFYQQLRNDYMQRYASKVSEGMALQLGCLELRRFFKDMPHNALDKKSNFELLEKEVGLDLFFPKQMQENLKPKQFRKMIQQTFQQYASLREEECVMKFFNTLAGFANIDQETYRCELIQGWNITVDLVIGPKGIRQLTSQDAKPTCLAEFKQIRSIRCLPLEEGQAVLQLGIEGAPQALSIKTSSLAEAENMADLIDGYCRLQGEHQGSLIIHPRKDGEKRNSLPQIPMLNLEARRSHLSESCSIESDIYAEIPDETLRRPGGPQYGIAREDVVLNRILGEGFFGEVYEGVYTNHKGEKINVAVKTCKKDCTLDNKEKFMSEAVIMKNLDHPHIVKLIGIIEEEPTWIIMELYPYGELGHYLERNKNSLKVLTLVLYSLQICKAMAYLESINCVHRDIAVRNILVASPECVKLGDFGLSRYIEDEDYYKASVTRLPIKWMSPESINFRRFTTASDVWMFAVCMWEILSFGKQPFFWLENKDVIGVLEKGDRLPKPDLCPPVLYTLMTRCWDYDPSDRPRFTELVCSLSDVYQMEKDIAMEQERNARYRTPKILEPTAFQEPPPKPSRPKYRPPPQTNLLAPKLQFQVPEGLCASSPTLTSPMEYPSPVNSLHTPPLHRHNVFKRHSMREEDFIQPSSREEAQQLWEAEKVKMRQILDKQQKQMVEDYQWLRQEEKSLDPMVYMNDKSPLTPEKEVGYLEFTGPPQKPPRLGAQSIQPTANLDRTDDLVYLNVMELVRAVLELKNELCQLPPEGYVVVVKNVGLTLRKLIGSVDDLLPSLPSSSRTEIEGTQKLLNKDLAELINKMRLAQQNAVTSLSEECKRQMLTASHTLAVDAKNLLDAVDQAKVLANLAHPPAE
T1 sequence (P37231 whole entry): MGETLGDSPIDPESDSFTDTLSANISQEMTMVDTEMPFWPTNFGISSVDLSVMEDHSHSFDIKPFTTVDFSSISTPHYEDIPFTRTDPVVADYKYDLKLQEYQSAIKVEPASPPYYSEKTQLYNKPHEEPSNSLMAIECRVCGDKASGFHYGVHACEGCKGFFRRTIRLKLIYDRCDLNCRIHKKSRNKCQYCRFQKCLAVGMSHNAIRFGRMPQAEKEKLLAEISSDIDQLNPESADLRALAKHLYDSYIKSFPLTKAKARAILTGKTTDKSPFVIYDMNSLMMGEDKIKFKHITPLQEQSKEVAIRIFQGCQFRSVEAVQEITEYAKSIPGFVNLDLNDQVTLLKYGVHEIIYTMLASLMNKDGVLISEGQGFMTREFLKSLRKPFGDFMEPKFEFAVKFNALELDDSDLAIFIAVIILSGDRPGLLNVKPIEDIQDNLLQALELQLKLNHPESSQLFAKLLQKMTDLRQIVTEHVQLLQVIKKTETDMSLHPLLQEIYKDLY
T1 sequence (Q9Y618 whole entry): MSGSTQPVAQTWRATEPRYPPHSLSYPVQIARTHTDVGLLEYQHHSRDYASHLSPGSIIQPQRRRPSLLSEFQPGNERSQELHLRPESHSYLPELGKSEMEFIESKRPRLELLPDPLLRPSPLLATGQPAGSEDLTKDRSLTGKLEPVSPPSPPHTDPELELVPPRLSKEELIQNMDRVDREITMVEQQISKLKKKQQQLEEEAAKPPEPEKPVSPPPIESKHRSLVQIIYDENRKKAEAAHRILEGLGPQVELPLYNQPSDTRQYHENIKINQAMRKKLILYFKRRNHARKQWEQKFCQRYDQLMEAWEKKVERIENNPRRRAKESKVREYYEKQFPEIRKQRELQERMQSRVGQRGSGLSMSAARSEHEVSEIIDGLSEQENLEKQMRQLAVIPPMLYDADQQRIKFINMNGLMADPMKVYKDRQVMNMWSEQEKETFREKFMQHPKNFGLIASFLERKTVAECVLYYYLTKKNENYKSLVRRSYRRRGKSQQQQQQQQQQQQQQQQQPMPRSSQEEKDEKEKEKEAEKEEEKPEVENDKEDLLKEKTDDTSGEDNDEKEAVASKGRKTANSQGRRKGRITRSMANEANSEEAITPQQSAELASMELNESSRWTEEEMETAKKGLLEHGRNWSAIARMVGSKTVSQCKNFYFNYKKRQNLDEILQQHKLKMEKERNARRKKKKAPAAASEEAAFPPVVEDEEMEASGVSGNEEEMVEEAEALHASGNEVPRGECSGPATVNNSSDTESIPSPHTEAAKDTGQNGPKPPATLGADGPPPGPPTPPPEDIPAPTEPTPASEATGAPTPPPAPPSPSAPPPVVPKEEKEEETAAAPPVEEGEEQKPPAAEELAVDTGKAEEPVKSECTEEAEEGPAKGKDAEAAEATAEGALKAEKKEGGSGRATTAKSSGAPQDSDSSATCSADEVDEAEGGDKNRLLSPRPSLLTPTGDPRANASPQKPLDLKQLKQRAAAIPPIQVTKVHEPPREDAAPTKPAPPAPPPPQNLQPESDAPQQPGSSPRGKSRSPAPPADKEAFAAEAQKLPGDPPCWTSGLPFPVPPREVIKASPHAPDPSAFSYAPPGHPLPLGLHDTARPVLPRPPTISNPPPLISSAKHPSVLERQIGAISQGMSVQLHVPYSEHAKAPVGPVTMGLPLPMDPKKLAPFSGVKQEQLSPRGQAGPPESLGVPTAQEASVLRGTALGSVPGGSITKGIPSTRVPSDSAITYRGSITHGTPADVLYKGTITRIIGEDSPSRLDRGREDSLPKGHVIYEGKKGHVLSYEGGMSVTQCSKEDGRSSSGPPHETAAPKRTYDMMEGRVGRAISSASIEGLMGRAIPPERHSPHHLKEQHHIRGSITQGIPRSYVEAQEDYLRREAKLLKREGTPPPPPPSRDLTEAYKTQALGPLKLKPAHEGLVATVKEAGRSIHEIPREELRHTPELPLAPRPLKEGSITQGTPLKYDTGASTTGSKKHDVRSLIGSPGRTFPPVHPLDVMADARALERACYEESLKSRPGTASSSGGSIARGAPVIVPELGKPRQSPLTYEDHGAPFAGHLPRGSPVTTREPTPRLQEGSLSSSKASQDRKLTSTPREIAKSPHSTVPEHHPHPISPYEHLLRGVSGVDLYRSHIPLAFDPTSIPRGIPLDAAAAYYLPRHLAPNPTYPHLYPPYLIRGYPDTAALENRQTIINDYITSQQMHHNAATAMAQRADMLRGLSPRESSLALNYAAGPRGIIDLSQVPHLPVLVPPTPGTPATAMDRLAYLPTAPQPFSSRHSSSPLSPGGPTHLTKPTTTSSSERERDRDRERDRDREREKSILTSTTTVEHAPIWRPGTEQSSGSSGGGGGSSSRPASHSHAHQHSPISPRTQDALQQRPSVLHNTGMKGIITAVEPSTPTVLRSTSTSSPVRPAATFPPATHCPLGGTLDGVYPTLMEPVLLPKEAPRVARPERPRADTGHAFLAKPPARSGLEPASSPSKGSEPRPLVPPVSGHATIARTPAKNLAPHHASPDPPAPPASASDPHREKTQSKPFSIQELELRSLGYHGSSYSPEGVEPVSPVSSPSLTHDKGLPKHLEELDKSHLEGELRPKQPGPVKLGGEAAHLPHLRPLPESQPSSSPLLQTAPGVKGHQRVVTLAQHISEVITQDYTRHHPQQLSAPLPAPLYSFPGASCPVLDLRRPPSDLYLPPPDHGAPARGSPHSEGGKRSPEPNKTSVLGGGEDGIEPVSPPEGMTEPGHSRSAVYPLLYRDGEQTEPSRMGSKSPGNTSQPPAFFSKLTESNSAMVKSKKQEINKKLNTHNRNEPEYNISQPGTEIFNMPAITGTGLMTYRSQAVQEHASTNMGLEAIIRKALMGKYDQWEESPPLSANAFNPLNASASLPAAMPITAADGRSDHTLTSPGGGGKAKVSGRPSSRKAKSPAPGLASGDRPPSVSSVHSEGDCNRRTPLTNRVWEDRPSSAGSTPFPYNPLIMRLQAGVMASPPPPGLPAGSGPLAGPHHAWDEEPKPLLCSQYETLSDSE
T2 sequence (Q9Y5X4 whole entry): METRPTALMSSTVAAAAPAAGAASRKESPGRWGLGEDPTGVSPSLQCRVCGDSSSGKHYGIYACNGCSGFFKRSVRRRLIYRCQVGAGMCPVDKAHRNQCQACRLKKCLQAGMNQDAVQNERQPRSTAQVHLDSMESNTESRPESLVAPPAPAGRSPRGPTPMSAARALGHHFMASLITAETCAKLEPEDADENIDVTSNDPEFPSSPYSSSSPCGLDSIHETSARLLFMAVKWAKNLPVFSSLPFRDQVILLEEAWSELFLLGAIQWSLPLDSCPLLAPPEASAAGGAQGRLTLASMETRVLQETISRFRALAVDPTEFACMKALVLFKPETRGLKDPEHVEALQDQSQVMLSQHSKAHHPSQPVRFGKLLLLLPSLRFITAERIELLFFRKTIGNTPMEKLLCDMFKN
Cytochrome P450 3A4, sequence (P08684 whole entry): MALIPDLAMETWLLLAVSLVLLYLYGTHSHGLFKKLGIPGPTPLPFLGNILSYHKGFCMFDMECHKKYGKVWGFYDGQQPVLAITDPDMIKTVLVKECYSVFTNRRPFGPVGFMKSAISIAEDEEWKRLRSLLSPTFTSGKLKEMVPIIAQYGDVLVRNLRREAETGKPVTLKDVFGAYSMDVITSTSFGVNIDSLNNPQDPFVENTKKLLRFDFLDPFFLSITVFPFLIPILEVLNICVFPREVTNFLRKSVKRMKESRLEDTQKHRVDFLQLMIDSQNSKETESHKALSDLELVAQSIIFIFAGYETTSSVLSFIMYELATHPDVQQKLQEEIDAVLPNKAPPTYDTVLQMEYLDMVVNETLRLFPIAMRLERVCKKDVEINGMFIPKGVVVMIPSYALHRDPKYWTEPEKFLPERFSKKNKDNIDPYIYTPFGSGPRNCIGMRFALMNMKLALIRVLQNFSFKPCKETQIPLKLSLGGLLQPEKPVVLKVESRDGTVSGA
Phospholipase A2, sequence (P04054 whole entry): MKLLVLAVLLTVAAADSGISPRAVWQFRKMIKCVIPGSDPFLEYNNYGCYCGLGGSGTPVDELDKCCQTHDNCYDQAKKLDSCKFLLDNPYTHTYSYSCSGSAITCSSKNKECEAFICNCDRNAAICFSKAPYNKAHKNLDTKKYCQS

Consider `COc1ccc(C(=O)Nc2nc3ccc4nc(C)sc4c3s2)cc1`, for which the results for the EC50 in [1], in data set [2] and in [6] were 45.2 µM (inactive), 58.7 µM (not active) and 37.9 µM (not active), respectively. Besides, the IC50 in [3] was 1.45 µM (active); in [4] it was 2.19 µM (active); in [5] it was 0.862 µM (active).

In the case of `O=C(O)c1cc(-c2ccco2)nc2ccc(Br)cc12`, the half-maximal inhibitory concentration (IC50) in data set [7] was > 39.8 µM (not active); at Large T antigen, 78.6 µM (active); at Estrogen receptor, 47.6 µM (not active); at Estrogen receptor beta [8], 9.82 µM (active); at Estrogen receptor beta [9], < 0.023 µM (not active); in data set [10] it was 1.38 µM (active). For the same molecule, the IC50 is 81.9 µM (active) in data set [11], 9.96 µM (active) on Cysteine protease ATG4B, 12.2 µM (active) at Phospholipase A2 and > 20 µM (inactive) in data set [13]. Also, the AC50 in data set [12] was 0.785 µM (active).

Take `COc1ccc(OC)c(CNn2c(-c3ccccc3F)nc3ccccc3c2=O)c1`: the EC50 in data set [14] is recorded as 85 µM (not active).

As to `Cc1occc1-c1nnc(SCC(=O)Nc2ccccc2-c2ccccc2)n1C`, at Ephrin type-A receptor 4, the IC50 is > 100 µM (not active).

As to `CCOC(=O)c1sc(NC(=O)c2ccc(C)o2)nc1C`, the EC50 in data set [15] was 0.541 µM (active); in data set [16], 0.306 µM (active); in [17], < 0.1 µM (inconclusive); in the data set on H4 it was 3.76 µM (active); in data set [18] it was 0.421 µM (active); in data set [20], 0.793 µM (active). Besides, the IC50 in [19] was 6.55 µM (active).

`Cc1nn(-c2ccccc2)c2c1C(c1ccc(O)c(O)c1)N1C(=N2)C(Nc2ccccc2)=Nc2ccccc21` (stereo unspecified): the half-maximal inhibitory concentration (IC50) in data set [21] is 4.68 µM (active). The figures for the EC50 (in [22]; on Streptokinase A; with Streptococcus) were 0.772 µM (active), 1.53 µM (active) and 5.88 µM (active), respectively. Moreover, the AC50 on Cytochrome P450 3A4 is 14.1 µM (inconclusive).

For the molecule `CCOC(=O)c1cccc2c1-c1ccccc1/C2=N/O`, the IC50 is 7.48 µM (active) in [3] and 11.5 µM (not active) in [23]. The AC50 at Cytochrome P450 3A4 was 28.2 µM (inconclusive); on Cytochrome P450 2D6 it was “inconclusive”.

Consider `O=C(N/N=C/c1c(F)c(F)c(F)c(F)c1F)c1cccc(S(=O)(=O)N2CCOCC2)c1`, for which the IC50 in [24] is > 100 µM (active).

Broadly, the EC50 is the concentration that produces a half-maximal response. A word on the IC50: it is the concentration that gives 50% inhibition. As a reminder, the AC50 is the midpoint of the concentration-response curve, whichever way the signal moves.

The record behind these values is ChEMBL document CHEMBL1201862, “PubChem BioAssay data set” (2004).
